target: GST-hRIPK1 (8-327) (Homo sapiens (Human), UniProt Q13546); assay: Fluorescent Polarization Binding (FP Binding) assay, RIPK1; conditions: 10 nM GST-hRIPK1 (8-327), 5 nM fluorescent-labeled ligand, RT, 30 min, mean of at least two independent experiments
Method in brief: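 Compound displacement of 5 nM labelled ligand from 10 nM GST-hRIPK1 (8-327) was read as FP (531/595 nm) after 30 min at RT. Buffer: HEPES pH 7.5, NaCl, MgCl2, CHAPS, DTT, Pluronic; 1% DMSO final. IC50s were averaged over at least two independent runs.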

Chain of GST-hRIPK1 (8-327) (Q13546 8-327): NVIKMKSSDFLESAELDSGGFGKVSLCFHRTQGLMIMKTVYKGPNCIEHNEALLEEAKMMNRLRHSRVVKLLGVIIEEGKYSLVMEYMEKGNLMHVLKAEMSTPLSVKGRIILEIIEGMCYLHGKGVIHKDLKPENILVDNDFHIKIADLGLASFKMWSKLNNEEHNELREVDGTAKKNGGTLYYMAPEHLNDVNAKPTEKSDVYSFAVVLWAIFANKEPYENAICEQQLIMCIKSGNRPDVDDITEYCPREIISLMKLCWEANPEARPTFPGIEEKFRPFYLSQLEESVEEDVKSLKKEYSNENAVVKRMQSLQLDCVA

| SMILES | IC50 [nM] |
| --- | --- |
| Cc1ccc2c(c1)CN(C(=O)C(C)(C)C(F)F)CCO2 [Example 11, 3,3-difluoro-2,2-dimethyl-1-(7-methyl-2,3-dihydrobenzo[f][1,4]oxazepin-4(5H)-yl)propan-1-one] | 100 to 1000 |
| Cc1ocnc1C(=O)N1CCC(F)(C(=O)N2CCOc3c(C#N)cncc3C2)CC1 [Example 173, 4-[4-fluoro-1-(5-methyloxazole-4-carbonyl)piperidine-4-carbonyl]-3,5-dihydro-2H-pyrido[3,4-f][1,4]oxazepine-9-carbonitrile] | 100 to 1000 |
| CC1(C(=O)N2CCOc3c(C#N)cccc3C2)CCN(c2ncc(F)cn2)CC1 [Example 24, 4-[1-(5-fluoropyrimidin-2-yl)-4-methyl-piperidine-4-carbonyl]-3,5-dihydro-2H-1,4-benzoxazepine-9-carbonitrile] | 0.1 to 100 |
| CCC1(C(=O)N2CCOc3c(C#N)cncc3C2)CCN(c2ncc(F)cn2)CC1 [Example 98, 4-[4-ethyl-1-(5-fluoropyrimidin-2-yl)piperidine-4-carbonyl]-3,5-dihydro-2H-pyrido[3,4-f][1,4]oxazepine-9-carbonitrile] | 100 to 1000 |
| N#Cc1cncc2c1OCCN(C(=O)C13CCN(c4ncc(F)cn4)CC1C3(F)F)C2 (stereo not drawn) [Example 99, 4-[7,7-difluoro-3-(5-fluoropyrimidin-2-yl)-3-azabicyclo[4.1.0]heptane-6-carbonyl]-3,5-dihydro-2H-pyrido[3,4-f][1,4]oxazepine-9-carbonitrile] | 100 to 1000 |
| C[C@@H]1COc2c(C#N)cncc2CN1C(=O)C(C)(C)C [Example 78, (3R)-4-(2,2-dimethylpropanoyl)-3-methyl-3,5-dihydro-2H-pyrido[3,4-f][1,4]oxazepine-9-carbonitrile] | 0.1 to 100 |
| CC(C)(CC#N)C(=O)N1CCOc2c(F)cncc2C1 [Example 70, 4-(9-fluoro-2,3-dihydropyrido[3,4-f][1,4]oxazepin-4(5H)-yl)-3,3-dimethyl-4-oxobutanenitrile] | 100 to 1000 |
| N#Cc1cncc2c1OCCN(C(=O)C1(F)CCN(c3ncc(F)cn3)C1)C2 (stereo not drawn) [Example 176, 4-[3-fluoro-1-(5-fluoropyrimidin-2-yl)pyrrolidine-3-carbonyl]-3,5-dihydro-2H-pyrido[3,4-f][1,4]oxazepine-9-carbonitrile] | > 1000 |
| CC(C)(C(=O)N1CCOc2c(C#N)cncc2C1)C1CCN(c2ncc(F)cn2)C1 (stereo not drawn) [Example 90, 4-[2-[1-(5-fluoropyrimidin-2-yl)pyrrolidin-3-yl]-2-methyl-propanoyl]-3,5-dihydro-2H-pyrido[3,4-f][1,4]oxazepine-9-carbonitrile] | 0.1 to 100 |
| N#Cc1cncc2c1OCCN(C(=O)C1(C(F)(F)F)CC1)C2 [Example 48, 4-[1-(trifluoromethyl)cyclopropanecarbonyl]-3,5-dihydro-2H-pyrido[3,4-f][1,4]oxazepine-9-carbonitrile] | 100 to 1000 |
| COc1nccc(N2CCC(F)(C(=O)N3CCOc4c(C#N)cncc4C3)CC2)n1 [Example 172, 4-[4-fluoro-1-(2-methoxypyrimidin-4-yl)piperidine-4-carbonyl]-3,5-dihydro-2H-pyrido[3,4-f][1,4]oxazepine-9-carbonitrile] | 100 to 1000 |
| N#Cc1cncc2c1OCCN(C(=O)C1(F)CCN(c3nccc4ncnn34)CC1)C2 [Example 166, 4-[4-fluoro-1-([1,2,4]triazolo[1,5-c]pyrimidin-5-yl)piperidine-4-carbonyl]-3,5-dihydro-2H-pyrido[3,4-f][1,4]oxazepine-9-carbonitrile] | 100 to 1000 |
| N#Cc1cncc2c1OCCN(C(=O)C1(F)CCN(c3ncncc3F)CC1)C2 [Example 112, 4-(4-fluoro-1-(5-fluoropyrimidin-4-yl)piperidine-4-carbonyl)-2,3,4,5-tetrahydropyrido[3,4-f][1,4]oxazepine-9-carbonitrile] | 100 to 1000 |
| Cc1ccnc(N2CCC(F)(C(=O)N3CCOc4c(C#N)cncc4C3)CC2)n1 [Example 162, 4-[4-fluoro-1-(4-methylpyrimidin-2-yl)piperidine-4-carbonyl]-3,5-dihydro-2H-pyrido[3,4-f][1,4]oxazepine-9-carbonitrile] | 100 to 1000 |

same assay, conditions: GST-hRIPK1 (8-327), mean of at least two independent experiments

| SMILES | IC50 [nM] |
| --- | --- |
| COC1(C(=O)N2CCOc3c(F)cncc3C2)CCN(c2ncnc(OCC(F)F)n2)CC1 [Example 209, [1-[4-(2,2-difluoroethoxy)-1,3,5-triazin-2-yl]-4-methoxy-4-piperidyl]-(9-fluoro-3,5-dihydro-2H-pyrido[3,4-f][1,4]oxazepin-4-yl)methanone] | 100 to 1000 |
| CC(C)(C(=O)N1CCOc2c(C#N)cncc2C1)C1CC1COC(F)(F)F (stereo not drawn) [Example 274, 4-(2-Methyl-2-(2-((trifluoromethoxy)methyl)cyclopropyl)propanoyl)-2,3,4,5-tetrahydropyrido[3,4-f][1,4]oxazepine-9-carbonitrile] | > 1000 |
| CC(F)(F)C(C)(CF)C(=O)N1CCOc2c(C#N)cncc2C1 (stereo not drawn) [Example 267, 4-[3,3-Difluoro-2-(fluoromethyl)-2-methyl-butanoyl]-3,5-dihydro-2H-pyrido[3,4-f][1,4]oxazepine-9-carbonitrile] | 100 to 1000 |
| CC(C(=O)N1CCOc2c(C#N)cncc2C1)(C(F)F)C(F)F [Example 268, 4-[2-(difluoromethyl)-3,3-difluoro-2-methyl-propanoyl]-3,5-dihydro-2H-pyrido[3,4-f][1,4]oxazepine-9-carbonitrile] | 100 to 1000 |
| N#Cc1cncc2c1OCCN(C(=O)C1CCN(c3ccnc4c(F)cnn34)C[C@@H]1F)C2 (stereo partly drawn) [Example 226, 4-[(3,4)-trans-3-fluoro-1-(3-fluoropyrazolo[1,5-a]pyrimidin-7-yl)piperidine-4-carbonyl]-3,5-dihydro-2H-pyrido[3,4-f][1,4]oxazepine-9-carbonitrile] | 0.1 to 100 |
| [2H]C1([2H])Oc2c(C#N)cncc2CN(C(=O)C(C)(C)C(F)F)C1([2H])[2H] [Example 263, 2,2,3,3-tetradeuterio-4-(3,3-difluoro-2,2-dimethyl-propanoyl)-5H-pyrido[3,4-f][1,4]oxazepine-9-carbonitrile] | 0.1 to 100 |
| N#Cc1cncc2c1OCCN(C(=O)C1CCN(c3ncc(F)cn3)C[C@@H]1F)C2 (stereo partly drawn) [Example 241, 4-[(3,4)-cis-3-fluoro-1-(5-fluoropyrimidin-2-yl)piperidine-4-carbonyl]-3,5-dihydro-2H-pyrido[3,4-f][1,4]oxazepine-9-carbonitrile] | 100 to 1000 |
| CC1(C(=O)N2CCOc3c(C#N)cncc3C2)CCN(c2ncc(F)cn2)CC1F (single isomer, unassigned) [Example 300, 4-[3-Fluoro-1-(5-fluoropyrimidin-2-yl)-4-methyl-piperidine-4-carbonyl]-3,5-dihydro-2H-pyrido[3,4-f][1,4]oxazepine-9-carbonitrile] | 0.1 to 100 |
| CC1(C(=O)N2CCOc3c(C#N)cncc3C2)CCN(c2nccn3ncnc23)CC1(F)F (stereo not drawn) [Example 222, 4-[3,3-difluoro-4-methyl-1-([1,2,4]triazolo[1,5-a]pyrazin-8-yl)piperidine-4-carbonyl]-3,5-dihydro-2H-pyrido[3,4-f][1,4]oxazepine-9-carbonitrile] | 0.1 to 100 |
| CC(C)(C(=O)N1CCOc2c(C#N)cncc2C1)C1CC(n2cc(F)cn2)C1 (stereo not drawn) [Example 277, 4-[2-[3-(4-fluoropyrazol-1-yl)cyclobutyl]-2-methyl-propanoyl]-3,5-dihydro-2H-pyrido[3,4-f][1,4]oxazepine-9-carbonitrile] | 100 to 1000 |
